These results are taken from publication PMC12591169 (Advanced Science, 2025).

Entries after “also recorded” stand apart in the source; their conditions may differ. Non-standard residues stand in square brackets, D forms with d. pT = C[C@@H](OP(=O)(O)O)[C@H](N)C(=O)O

The test system of one test is 14‐3‐3σ. Nature of the test: HDX‐MS of 14‐3‐3σ with and without ERα or LRRK2 peptide. In kind it is binding. As to conditions: for protection of 14‐3‐3σ from deuterium exchange upon peptide binding: 14‐3‐3σ 100 µM, ERα 100 µM or LRRK2 200 µM, diluted tenfold into 100 mM ammonium acetate 99.9% D2O pD 7.2, room temperature, 10 min, 5 h, 24 h, 10% DMSO, n = 3 (LRRK2 10 min: duplicate); for protection of 14‐3‐3σ from deuterium exchange at H8 upon peptide binding: H8, located distally from the binding groove. The method, then:
(§1) Maximally deuterated samples were analyzed in triplicate.
(§2) Eluted peptides were directly infused into the mass spectrometer. Mobile phases were kept on ice.
(§3) (Thermo Fisher Scientific). […] Peptides with >20 residues were excluded from analysis.

For test [1], the system named is 14‐3‐3. Particulars: cited from earlier work.
The subject of test [2] is 14‐3‐3. As to conditions: FRET; cited from earlier work.
The next test concerns 14‐3‐3σ/ERα complex. Nature of the test: HDX‐MS of 14‐3‐3σ/ERα complex with and without FC‐A. In kind it is binding. The method, then: as §1, §2, §3
The subject of another test is 14-3-3σ/ERα. As to conditions: 14-3-3:ERα:FC-A 1:1:10, 14‐3‐3 5 µM, FC‐A 50 µM, 100 mM ammonium acetate (pH 6.8), 0.5% DMSO; 3 replicates. The method, then:
(§4) LC‐MS grade dimethyl sulfoxide (DMSO) was purchased from Fisher Scientific. Lypholized ERα581‐595 15mer peptide (Ac‐[…](pT)V‐COOH, Synpeptide Ltd) and lypholized LRRK2_928‐942 15mer peptide (Ac‐NLQRHSN(pS)LGPIFDH‐CONH2, Synpeptide Ltd) were diluted into 100 mM ammonium acetate to make peptide stocks of 1 mM and stored at ‐20 °C prior to use. Fusicoccin A (FC‐A) was provided as a gift from Yusuke Higuchi. It was obtained as a metabolite of wildtype Phomopsis amygdali and genetically modified Phomopsis amygdali Niigata‐2 as reported previously^[ [62] ^] FC‐A stocks were stored in 100% DMSO at […] at ‐80 °C. 14‐3‐3 was buffer exchanged into 100 mM ammonium acetate (pH 6.8) using a 10 kDa molecular weight cut‐off Amicon Ultra centrifugal filter (Merck Millipore) and stored at ‐80 °C prior to use. To form the 14‐3‐3/ERα complex, 14‐3‐3 (5 µM) was incubated with ERα (1:1 ratio) in the presence and absence of FC‐A (50 µM) (1:1:10 ratio) for 10 min on ice or at 10 min, 5 h or 24 h at room temperature to mimic HDX conditions (Figure S16, Supporting Information). To form the 14‐3‐3/LRRK2 complex, 14‐3‐3 (5 µM) was incubated with LRRK2 (1:2 ratio) in the presence and absence of FC‐A (50 µM) (1:2:10 ratio). 14‐3‐3 binding ratios were optimized to enable single and double‐bound complex formation. 14‐3‐3 protein complexes were directly infused into the mass spectrometer. […]

Test [3] relates to 14‐3‐3/LRRK2 complex. Nature of the test: Native MS of 14‐3‐3σ/LRRK2 with FC‐A. In kind it is binding. Particulars: 14‐3‐3 5 µM, LRRK2 1:2 ratio, FC‐A 50 µM (1:2:10); Figure S14e; proposed explanation of HDX protection. The protocol: as §4
Test [4] relates to 14‐3‐3/LRRK2 complex. Particulars: HDX‐MS, 14‐3‐3σ 100 µM, LRRK2 200 µM, FC‐A 1 mM.
Description: To form the 14‐3‐3/LRRK2 complex, 14‐3‐3σ in 25 mM HEPES, 200 mM NaCl, and 10 mM MgCl2 pH 8.0 (100 µM) was incubated with LRRK2 (200 µM) for 10 min on ice. To form the stabilized complex, 14‐3‐3σ (100 µM) was incubated with LRRK2 (200 µM) and FC‐A (1 mM) for 10 min on ice. Control incubations with 14‐3‐3σ (100 µM) in isolation were also performed. A final concentration of 10% DMSO was used for all experiments.
Deuterium labelling was carried out by diluting 14‐3‐3, 14‐3‐3/ERα, 14‐3‐3/ERα/FC‐A, 14‐3‐3/LRRK2 and 14‐3‐3/LRRK2/FC‐A tenfold with 100 mM ammonium acetate 99.9% D2O pD 7.2 and incubating for 10 min, 5 h, and 24 h at room temperature. The reaction was quenched by removal of 50 µL protein complex at each time‐point and adding 30 µL 4 M urea, 200 mM potassium phosphate buffer, pH 2.4, followed by flash freezing in liquid nitrogen and stored at ‐80 °C. […] Each time point was analysed in triplicate by LC‐MS with the exception of the 10‐min timepoint for LRRK2, analysed in duplicate. Non‐deuterated control samples were analysed in triplicate by LC‐MS for ERα complexes and duplicate for LRRK2 complexes.
Maximally deuterated samples were prepared by buffer exchanging 14‐3‐3 into 100 mM ammonium acetate 99.9% D2O pD 7.2 at 20 °C using a 10 kDa molecular weight cut‐off Amicon Ultra centrifugal filter (Merck Millipore). […] Maximally deuterated samples were analyzed in triplicate. […]
The subject of the next test is 14‐3‐3/ERα. As to conditions: cited from earlier work. The text has this: (§5) Overall, we have highlighted the usefulness of applying HDX‐MS to characterize molecular glues. […] This information was captured on minute‐hour HDX‐MS timescales; however, it is important to optimize HDX‐MS timescales when applying this method to study alternate protein systems. Indeed, shorter timescales might be preferential to capture the most valuable information.

Test [5] deals with 14-3-3•ERα protein complex. As to conditions: ref PDB 4JDD, cited from earlier work. The text has this:
(§6) Top: Insert of the amphipathic binding groove of 14-3-3 showing binding of FC-A (green) to the 14-3-3•ERα complex (pink) (PDB 4JDD). 14-3-3σ residues involved in binding FC-A and ERα are labelled in grey. […] For illustrati ...

The test system of a further test is 14-3-3•LRRK2 complex. As to conditions: Fig. S3; protein partner occupies the FC-A binding site; ref PDB 5MY9; cited from earlier work.
Description: as §6

The test system of a further test is 14‐3‐3ζ /E6 oncoprotein. As to conditions: crystallography; cited from earlier work.
Test [6] has as its system 14-3-3σ. The experiment in a line: Native MS of 14‐3‐3σ with ERα. As to conditions: 14‐3‐3 5 µM, 1:1 ratio, 100 mM ammonium acetate (pH 6.8), 0.5% DMSO, absence of FC-A; 3 replicates. In kind it is binding. The method, then: as §4
Test [7] concerns the target 14‐3‐3. Particulars: binary complex, without FC‐A; read-out: Kd for the binary complex 14‐3‐3/ERα; cited from earlier work.
Description: as §5

Test [8] concerns the target T1, 14-3-3σ (UniProt P31947 1-248).
T1 construct: 14-3-3 protein sigma, full length
T1 sequence (looked up): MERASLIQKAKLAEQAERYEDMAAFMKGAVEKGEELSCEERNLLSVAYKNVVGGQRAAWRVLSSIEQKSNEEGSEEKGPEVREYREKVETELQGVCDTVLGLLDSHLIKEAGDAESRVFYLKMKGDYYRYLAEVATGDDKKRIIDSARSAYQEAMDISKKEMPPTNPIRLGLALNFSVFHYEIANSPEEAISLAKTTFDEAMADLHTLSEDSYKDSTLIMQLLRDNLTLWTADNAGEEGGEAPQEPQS
Nature of the test: HDX-MS; 14-3-3σ (100 µM) incubated with ERα peptide (100 µM) or LRRK2 peptide (200 µM), with or without FC-A (1 mM), 10 min on ice, in 25 mM HEPES, 200 mM NaCl, 10 mM MgCl2 pH 8.0, 10% DMSO; diluted tenfold in 100 mM ammonium acetate 99.9% D2O pD 7.2; labelled 10 min, 5 h and 24 h at room temperature; deuterium uptake read on 14-3-3σ peptides (pepsin/nepenthesin-2). Particulars: both partners purified.

Regarding “Ac‐NLQRHSN(pS)LGPIFDH‐CONH2 [LRRK2, lypholized LRRK2_928‐942 15mer peptide, phosphorylated mimetic of leucine‐rich repeat kinase 2]”, the “protection of 14‐3‐3σ from deuterium exchange upon peptide binding” value in the test on 14‐3‐3σ is reported as “identical areas of protection were observed upon LRRK2 binding; also recorded: the level of protection decreased relative to ERα”. The “protection of 14‐3‐3σ from deuterium exchange at H8 upon peptide binding” value in the test with 14‐3‐3σ (pD 7.2, room temperature) is “protection was also observed at H8”. In the test on 14‐3‐3 [1], the “binding affinity for 14‐3‐3 relative to ERα” value is reported as “lower binding affinity”.
Regarding “tyrosine hydroxylase: protein partner titrated in a previous FRET study of 14‐3‐3 dimerization”, the “14‐3‐3 dimer stability upon titration” value in the test with 14‐3‐3 [2] was “increased dimer stability”.
For the molecule `C=CC(C)(C)OC[C@H]1O[C@H](O[C@@H]2C3=C([C@H](C)COC(C)=O)C[C@H](O)[C@]3(C)/C=C3/[C@@H](COC)CC[C@H]3[C@@H](C)[C@H]2O)[C@H](O)[C@@H](OC(C)=O)[C@@H]1O` [FC‐A, Fusicoccin A], the “additional protection from deuterium exchange of 14‐3‐3σ/ERα upon FC‐A addition” value in the test on 14‐3‐3σ/ERα complex (HDX‐MS, 14‐3‐3σ 100 µM, ERα 100 µM, FC‐A 1 mM, diluted tenfold into D2O buffer pD 7.2, room temperature, 10 min, 5 h, 24 h, 10% DMSO, n = 3) is “additional protection was observed in several peptides; also recorded: increased protection on H3, H7 and H9; also recorded: protection toward the N‐terminus of H3 and H5 between residues 37–45 and 117–122; also recorded: between residues 85–100 on H4 and residues 26–36 on H2; also recorded: additional protection from deuterium labelling”. Further, the “closure of H9 upon FC‐A addition to 14‐3‐3σ/ERα” value in the test with 14‐3‐3σ/ERα complex (HDX‐MS, pD 7.2, room temperature) was “Evidence of this H9 closure was not observed”. Moreover, the “peptides with main differences in HDX uptake, 14‐3‐3σ/ERα vs 14‐3‐3σ/ERα/FC‐A” value in the test with 14‐3‐3σ/ERα complex (difference plot over all time points (10 min, 5 h, 24 h)) is “peptides 23–35, 45-51, 71-73, 92-114 and 120-122”. Moreover, the “shift of binding equilibrium upon FC-A addition, native MS” value in the test on 14-3-3σ/ERα is “the binding equilibrium is shifted to the fully stabilized ternary complex”. Moreover, the “interaction between FC‐A and the 14‐3‐3/LRRK2 complex” value with 14‐3‐3/LRRK2 complex [3] is “low affinity interaction”. Moreover, the “additional protection of 14‐3‐3/LRRK2 in regions of the LRRK2 binding interface upon FC‐A addition” value with 14‐3‐3/LRRK2 complex [4] (diluted tenfold into D2O buffer pD 7.2, room temperature, 10% DMSO) is recorded as “No additional protection was observed in regions involved in the LRRK2 binding interface suggesting no stabilization effect”. For the same molecule, in the test on 14‐3‐3/LRRK2 complex [4] (pD 7.2, room temperature), the “level of protection of residues 37 to 45 (FC‐A binding region) in 14‐3‐3/LRRK2 upon FC‐A addition” value is roughly 8%. Moreover, the “increase of 14‐3‐3/ERα affinity by the molecular glue” value in the test with 14‐3‐3/ERα (FC‐A) is greater than 10 fold. Besides, the “stabilization of 14-3-3•ERα complex by FC-A” value in [5] (Fig. S3, PDB 4JDD) is “binds and stabilizes”. For the same molecule, in test [5] (Fig. S3), the “14-3-3σ/ERα residues interacting with FC-A” value is “N42, D215 and K122 interact with FC-A”. In addition, in the test with 14-3-3•LRRK2 complex, the “stabilization of 14-3-3•LRRK2 complex by FC-A” value is given as “does not stabilize”. Moreover, the “conformational change of 14‐3‐3ζ upon addition of FC‐A” value with 14‐3‐3ζ /E6 oncoprotein is listed as “closure of H9”.
Take “Ac‐KYYITGEAEGFPA(pT)V‐COOH (Ac-KYYITGEAEGFPA[pT]V-OH) [ERα, lypholized ERα581‐595 15mer peptide, phosphorylated mimetic of estrogen receptor α]”: in the test on 14‐3‐3σ, the “protection of 14‐3‐3σ from deuterium exchange upon peptide binding” value was “Protection from deuterium labelling occurs; also recorded: peptides located in helices H3, H7 and H9 showed significant levels of protection after 24 h”. In the test on 14‐3‐3σ (pD 7.2, room temperature), the “protection of 14‐3‐3σ from deuterium exchange at H8 upon peptide binding” value was “protection was also observed at H8”; the “dynamics and flexibility of 14‐3‐3 dimer interface (residues 85–100 on H4, 26–36 on H2) upon ERα binding” value is “a reduction in dynamics and protein flexibility”. Also, in the test with 14-3-3σ [6], the “ERα complexes with 14-3-3 observed by native MS” value was “singly and doubly bound ERα is observed in complex”. The Kd at 14‐3‐3/ERα (in the presence of FC‐A) was 100 ± 30 nM. In addition, the Kd at 14‐3‐3 [7] was 1600 ± 300 nM.

B1: ERα_(581-595)pT594 15mer peptide of estrogen receptor α (peptide)
peptide: Ac-KYYITGEAEGFPA[pT]V-OH
notes: estrogen receptor α, residues 581-595, phosphorylated at T594 ('mode 3' C-terminal motif); source: synthetic peptide (Synpeptide Ltd)
Turning to B1, the binding result with 14-3-3σ [8] is “binds”.

B2: LRRK2_(928-942)pS935 15mer peptide of leucine-rich repeat kinase 2 (peptide)
peptide: NLQRHSNSLGPIFDH
HELM: PEPTIDE1{[ac].N.L.Q.R.H.S.N.[O=C([C@H](COP(=O)(O)O)N[*:1])[*:2]].L.G.P.I.F.D.H.[am]}$$$$V2.0
SMILES: CC[C@H](C)[C@H](NC(=O)[C@@H]1CCCN1C(=O)CNC(=O)[C@H](CC(C)C)NC(=O)[C@H](COP(=O)(O)O)NC(=O)[C@H](CC(N)=O)NC(=O)[C@H](CO)NC(=O)[C@H](Cc1c[nH]cn1)NC(=O)[C@H](CCCNC(=N)N)NC(=O)[C@H](CCC(N)=O)NC(=O)[C@H](CC(C)C)NC(=O)[C@H](CC(N)=O)NC(C)=O)C(=O)N[C@@H](Cc1ccccc1)C(=O)N[C@@H](CC(=O)O)C(=O)N[C@@H](Cc1c[nH]cn1)C(N)=O
notes: leucine-rich repeat kinase 2, residues 928-942, phosphorylated at S935; source: synthetic peptide (Synpeptide Ltd)
For the molecule B2, the binding result in the test with 14-3-3σ [8] was “binds”.
